# According to patent US11497736B2, “Compositions for an orally active 1,2,4-oxadiazole for the treatment of disease” (PTC Therapeutics, Inc., priority 2005, dated 2022):
# Experiments:
# Type in all cases: in vivo, human
# [1] = Body weight, Phase 2 cystic fibrosis study
# From the text: (§1) 3-[5-(2-Fluoro-phenyl)-[1,2,4]oxadiazol-3-yl]-benzoic acid was provided in a formulation described herein.
# (§2) Statistically significant results and positive trends for secondary endpoints were also observed. In particular, although the trials were not been powered to detect statistical significant changes in secondary endpoints, statistically significant improvements from study entry to the end of the higher-dose treatment cycle in the patients' mean FEV1, FVC and weight were observed.
# [2] = Pulmonary function tests (FEV1, FVC) by spirometry, Phase 2 cystic fibrosis study
# Protocol: Pulmonary function tests, including FEV1, FVC, and MEF25-75, are measured using standard spirometry procedures. Assessments of pulmonary function (including MEF25-75, FVC, and, particularly, FEV1) have been acknowledged as definitive clinical endpoints in patients with CF (Food and Drug Administration, 62nd Anti-Infective Drugs Advisory Committee. Discussion of NDA for tobramycin solution for inhalation (Tobi®) for the management of cystic fibrosis patients. November, 1997; Tiddens, 2002, Pediatr. Pulmonol. 34(3): 228-31). […] Pulmonary function testing is simple to administer (even in patients as young as 7 years of age), and uses standardized equipment and techniques that are widely available. Interpretation is performed using well-established normative equations that account for patient age, height, and gender.
# as §1
# (§3) Clinical endpoints were evaluated using the procedures set forth above. TEPD measurements were made prior to treatment and on days 14 and 28 of Cycle 1 and Cycle 2. Nasal mucosal curettage was collected from each nostril of each patient prior to treatment and on days 14 and 28 of Cycle 1 and Cycle 2. Pulmonary tests, including FEV1, FVC and MEF25-75, were measured prior to treatment, on day −1 of Cycle 2, on day 13 or 14 of Cycle 1 and day 13 or 14 of Cycle 2 in the study being conducted in Israel and the same parameters were measured prior to treatment and on day 13 or 14 of Cycle 2 in the study being conducted in the United States.
# as §2
# [3] = Patient-reported changes in cystic fibrosis symptoms, asked by trial investigators; conditions: of the 15 patients in the interim analysis
# From the text: as §1
# In addition, although changes in patient's symptoms were not formally measured through the use of a quality-of-life questionnaire, trial investigators were requested to ask about changes in patients' cystic fibrosis symptoms. In the 15 patients included in the interim analysis, 6 reported general improvements in well being, 6 reported decrease in cough and 10 reported decreased mucus thickness and easier clearing of mucus.
# CFTR = test: Transepithelial potential difference (TEPD) chloride conductance, Phase 2 study in nonsense-mutation-mediated cystic fibrosis; conditions: for Mean change in TEPD chloride conductance: 15 CF patients; for Number of patients with improvement in TEPD chloride conductance to normal / Number of patients with ≥−5 mV improvement in TEPD chloride conductance: patients/total
# Protocol: The measurement of transepithelial potential difference (TEPD), also known as nasal potential difference, provides a sensitive evaluation of sodium and chloride transport directly in secretory epithelial cells via assessment of transepithelial bioelectric properties (Knowles et al., 1981, N. Engl. J. Med. 305(25):1489-95; Knowles et al., 1995, Hum. Gene Ther. 6:445). TEPD is performed in each nostril using standardized techniques (Standaert et al., 2004, Ped. Pulm. 37:385-92). In the procedure, a small plastic catheter is used to assess electrical differences across the outer cell membrane of nasal mucosa cells in the nostril. TEPD values are expressed in millivolts, or mV. A chloride conductance equal to or more electrically negative than −5.0 mV is generally considered to be in the normal range. […] TEPD assessments can also be made on rectal epithelial cells and lower respiratory epithelial cells. Because of the role of the CFTR protein in transporting chloride ions across cell membranes, and because of the absence of this protein, cystic fibrosis patients have an abnormal TEPD chloride conductance. As an endpoint, TEPD has the advantage that it can detect chloride transport changes that are a quantitative integration of the presence, functional activity, and apical location of the CFTR in airway cells. Furthermore, it is a direct measure of CFTR activity that is not likely to be affected by supportive or palliative treatments for CF (with the possible exception of systemically administered aminoglycoside antibiotics). Of importance is evidence that TEPD values can correlate with the degree of pulmonary dysfunction and radiographic abnormality (Ho et al., 1997, Eur. Respir. J. 10(9):2018-22; Fajac et al., 1998, Eur. Respir. J 12(6):1295-300; Sermet-Gaudelus et al., 2005, Am. J. Respit. Crit. Care Med. 171(9):1026-1031). […] Under baseline conditions, TEPD-assessed chloride channel activity is very unlikely to normalize spontaneously in patients with CF; any observed improvements in TEPD-assessed chloride channel activity are expected to specifically denote pharmacological activity of CFTR-correcting therapies. Accordingly, it has become the primary endpoint in Phase 1-2 pharmacological and gene replacement studies aimed at correcting CFTR dysfunction (Peckham et al., 1995, AJ. Clin Sci (London). 89(3):277-84; Wilschanski et al., 2003, N. Engl. J Med. 349(15):1433-41).
# as §1, §3
# This is the average of the changes from the beginning to the end of the treatment period in TEPD chloride conductance within each study participant. For example, if the changes in TEPD chloride conductance within each of three participants were −7.0 mV, −2.0 mV and −9.0 mV, the mean change in TEPD chloride conductance among these participants would be −6.0 mV.
# For purposes of the trials, a chloride conductance response is defined as a TEPD chloride conductance improvement of at least −5 mV. For example, in a patient with a TEPD chloride conductance value of +1.0 mV at baseline and a TEPD chloride conductance value of −6.0 mV at the end of treatment, the TEPD chloride conductance improvement would be −7.0 mV, representing a chloride conductance response. […]
# [4] = Change from study entry to end of higher dose treatment
# [5] = Best of nostrils, higher dose level
# [6] = Best of nostrils, lower dose level
# [7] = Mean of both nostrils, higher dose level
# [8] = Mean of both nostrils, lower dose level
structure (smiles),measurement,setting,value
"O=C(O)c1cccc(-c2noc(-c3ccccc3F)n2)c1 [3-[5-(2-Fluoro-phenyl)-[1,2,4]oxadiazol-3-yl]-benzoic acid]",Weight change,[1]; [4],0.7 kg
same,Weight,"[1]; End of higher dose treatment, study entry 58.3 kg",59.0 kg
same,"Mean FEV1 change (percentage of normal for gender, age and height)",[2]; [4],3.3%
same,"Mean FVC change (percentage of normal for gender, age and height)",[2]; [4],4.9%
same,"Mean FEV1 (percentage of normal for gender, age and height)","[2]; End of higher dose treatment, study entry 65.8%",69.1%
same,"Mean FVC (percentage of normal for gender, age and height)","[2]; End of higher dose treatment, study entry 80.2%",85.1%
same,Patients who reported decrease in cough,[3],6
same,Patients who reported decreased mucus thickness and easier clearing of mucus,[3],10
same,Patients who reported general improvements in well being,[3],6
same,Number of patients with improvement in TEPD chloride conductance to normal (percentage),CFTR; [5],(53%)
same,Number of patients with ≥−5 mV improvement in TEPD chloride conductance (percentage),CFTR; [5],(53%)
same,Mean change in TEPD chloride conductance,"CFTR; Best of nostrils, higher dose level (10, 10, 20 mg/kg TID oral, 14 days)",−6.4 mV
same,Number of patients with improvement in TEPD chloride conductance to normal,CFTR; [5],8/15
same,Number of patients with ≥−5 mV improvement in TEPD chloride conductance,CFTR; [5],8/15
same,Number of patients with improvement in TEPD chloride conductance to normal (percentage),CFTR; [6],(53%)
same,Number of patients with ≥−5 mV improvement in TEPD chloride conductance (percentage),CFTR; [6],(60%)
same,Mean change in TEPD chloride conductance,"CFTR; Best of nostrils, lower dose level (4, 4, 8 mg/kg TID oral, 14 days)",−9.0 mV
same,Number of patients with improvement in TEPD chloride conductance to normal,CFTR; [6],8/15
same,Number of patients with ≥−5 mV improvement in TEPD chloride conductance,CFTR; [6],9/15
same,Number of patients with improvement in TEPD chloride conductance to normal (percentage),CFTR; [7],(47%)
same,Number of patients with ≥−5 mV improvement in TEPD chloride conductance (percentage),CFTR; [7],(47%)
same,Mean change in TEPD chloride conductance,"CFTR; Mean of both nostrils, higher dose level (10, 10, 20 mg/kg TID oral, 14 days)",−4.4 mV
same,Number of patients with improvement in TEPD chloride conductance to normal,CFTR; [7],7/15
same,Number of patients with ≥−5 mV improvement in TEPD chloride conductance,CFTR; [7],7/15
same,Number of patients with improvement in TEPD chloride conductance to normal (percentage),CFTR; [8],(40%)
same,Number of patients with ≥−5 mV improvement in TEPD chloride conductance (percentage),CFTR; [8],(40%)
same,Mean change in TEPD chloride conductance,"CFTR; Mean of both nostrils, lower dose level (4, 4, 8 mg/kg TID oral, 14 days)",−6.7 mV
same,Number of patients with improvement in TEPD chloride conductance to normal,CFTR; [8],6/15
same,Number of patients with ≥−5 mV improvement in TEPD chloride conductance,CFTR; [8],6/15
